PubChem BioAssay (NCI)
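Here, GI50 denotes the concentration required for 50% inhibition of growth. TGI: total growth inhibition.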

Legend:
Experiment in all cases: NCI tumour cell line growth inhibition, 384-well format
SW-620 colon = system: SW-620 colon
SR leukemia = system: SR leukemia
RPMI-8226 leukemia = system: RPMI-8226 leukemia
PC-3 prostate = system: PC-3 prostate
OVCAR-8 ovarian = system: OVCAR-8 ovarian
UACC-257 melanoma = system: UACC-257 melanoma
BT-549 breast = system: BT-549 breast
TK-10 renal = system: TK-10 renal
OVCAR-4 ovarian = system: OVCAR-4 ovarian
UO-31 renal = system: UO-31 renal
SNB-19 CNS = system: SNB-19 CNS
IGROV1 ovarian = system: IGROV1 ovarian
HT29 colon = system: HT29 colon
NCI-H460 NSCLC = system: NCI-H460 NSCLC
MOLT-4 leukemia = system: MOLT-4 leukemia
HCT-15 colon = system: HCT-15 colon
COLO 205 colon = system: COLO 205 colon
MCF7 breast = system: MCF7 breast
SK-MEL-28 melanoma = system: SK-MEL-28 melanoma
ACHN renal = system: ACHN renal
A549 NSCLC = system: A549 NSCLC
SF-539 CNS = system: SF-539 CNS
HCC-2998 colon = system: HCC-2998 colon
A498 renal = system: A498 renal
LOX IMVI melanoma = system: LOX IMVI melanoma
HOP-92 NSCLC = system: HOP-92 NSCLC
MDA-MB-468 breast = system: MDA-MB-468 breast
NCI-H522 lung = system: NCI-H522 lung
CCRF-CEM leukemia = system: CCRF-CEM leukemia
NCI-H23 lung = system: NCI-H23 lung
SF-295 CNS = system: SF-295 CNS
T-47D breast = system: T-47D breast
SK-MEL-5 melanoma = system: SK-MEL-5 melanoma
M14 melanoma = system: M14 melanoma
DU-145 prostate = system: DU-145 prostate
NCI-H226 lung = system: NCI-H226 lung
MALME-3M melanoma = system: MALME-3M melanoma
K-562 leukemia = system: K-562 leukemia
HOP-62 NSCLC = system: HOP-62 NSCLC
CAKI-1 renal = system: CAKI-1 renal
OVCAR-5 ovarian = system: OVCAR-5 ovarian
MDA-MB-231 breast = system: MDA-MB-231 breast
UACC-62 melanoma = system: UACC-62 melanoma
HL-60(TB) leukemia = system: HL-60(TB) leukemia
NCI/ADR-RES ovarian = system: NCI/ADR-RES ovarian
SF-268 CNS = system: SF-268 CNS
SK-OV-3 ovarian = system: SK-OV-3 ovarian
MDA-MB-435 melanoma = system: MDA-MB-435 melanoma
RXF 393 renal = system: RXF 393 renal
SK-MEL-2 melanoma = system: SK-MEL-2 melanoma
KM12 colon = system: KM12 colon
NCI-H322M lung = system: NCI-H322M lung
SN12C renal = system: SN12C renal
U251 glioblastoma = system: U251 glioblastoma
HCT-116 colon = system: HCT-116 colon
OVCAR-3 ovarian = system: OVCAR-3 ovarian
786-0 renal = system: 786-0 renal

COc1ccc(CC(NC(=O)[C@H](C)NC(=O)CN2CCOCC2)C(=O)N[C@@H](Cc2ccccc2)C(=O)[C@@]2(C)CO2)cc1 (some centres undefined)
GI50 (SW-620 colon): 167 nM | TGI (SW-620 colon): 312 nM | GI50 (SR leukemia): 30.4 nM | TGI (SR leukemia): 106 nM | GI50 (RPMI-8226 leukemia): 23.8 nM | TGI (RPMI-8226 leukemia): 55.4 nM | GI50 (PC-3 prostate): 188 nM | TGI (PC-3 prostate): 333 nM | GI50 (OVCAR-8 ovarian): 184 nM | TGI (OVCAR-8 ovarian): 340 nM | GI50 (UACC-257 melanoma): 123 nM | TGI (UACC-257 melanoma): 253 nM | GI50 (BT-549 breast): 175 nM | TGI (BT-549 breast): 316 nM | GI50 (TK-10 renal): 298 nM | TGI (TK-10 renal): 802 nM | GI50 (OVCAR-4 ovarian): 147 nM | TGI (OVCAR-4 ovarian): 284 nM | GI50 (UO-31 renal): 1750 nM | TGI (UO-31 renal): 3170 nM | GI50 (SNB-19 CNS): 188 nM | TGI (SNB-19 CNS): 347 nM | GI50 (IGROV1 ovarian): 255 nM | TGI (IGROV1 ovarian): 647 nM | GI50 (HT29 colon): 181 nM | TGI (HT29 colon): 330 nM | GI50 (NCI-H460 NSCLC): 181 nM | TGI (NCI-H460 NSCLC): 355 nM | GI50 (MOLT-4 leukemia): 15.5 nM | TGI (MOLT-4 leukemia): 28.9 nM | GI50 (HCT-15 colon): 1810 nM | TGI (HCT-15 colon): 3390 nM | GI50 (COLO 205 colon): 304 nM | TGI (COLO 205 colon): 1010 nM | GI50 (MCF7 breast): 138 nM | TGI (MCF7 breast): 382 nM | GI50 (SK-MEL-28 melanoma): 132 nM | TGI (SK-MEL-28 melanoma): 262 nM | GI50 (ACHN renal): 509 nM | TGI (ACHN renal): 1690 nM | GI50 (A549 NSCLC): 319 nM | TGI (A549 NSCLC): 1080 nM | GI50 (SF-539 CNS): 175 nM | TGI (SF-539 CNS): 315 nM | GI50 (HCC-2998 colon): 173 nM | TGI (HCC-2998 colon): 312 nM | GI50 (A498 renal): 226 nM | TGI (A498 renal): 545 nM | GI50 (LOX IMVI melanoma): 209 nM | TGI (LOX IMVI melanoma): 355 nM | GI50 (HOP-92 NSCLC): 149 nM | TGI (HOP-92 NSCLC): 294 nM | GI50 (MDA-MB-468 breast): 180 nM | TGI (MDA-MB-468 breast): 324 nM | GI50 (NCI-H522 lung): 167 nM | TGI (NCI-H522 lung): 304 nM | GI50 (CCRF-CEM leukemia): 37.4 nM | TGI (CCRF-CEM leukemia): 137 nM | GI50 (NCI-H23 lung): 210 nM | TGI (NCI-H23 lung): 362 nM | GI50 (SF-295 CNS): 157 nM | TGI (SF-295 CNS): 294 nM | GI50 (T-47D breast): 159 nM | TGI (T-47D breast): 302 nM | GI50 (SK-MEL-5 melanoma): 192 nM | TGI (SK-MEL-5 melanoma): 345 nM | GI50 (M14 melanoma): 142 nM | TGI (M14 melanoma): 278 nM | GI50 (DU-145 prostate): 302 nM | TGI (DU-145 prostate): 861 nM | GI50 (NCI-H226 lung): 60.5 nM | TGI (NCI-H226 lung): 186 nM | GI50 (MALME-3M melanoma): 136 nM | TGI (MALME-3M melanoma): 281 nM | GI50 (K-562 leukemia): 224 nM | TGI (K-562 leukemia): 468 nM | GI50 (HOP-62 NSCLC): 184 nM | TGI (HOP-62 NSCLC): 331 nM | GI50 (CAKI-1 renal): 271 nM | TGI (CAKI-1 renal): 765 nM | GI50 (OVCAR-5 ovarian): 192 nM | TGI (OVCAR-5 ovarian): 360 nM | GI50 (MDA-MB-231 breast): 166 nM | TGI (MDA-MB-231 breast): 309 nM | GI50 (UACC-62 melanoma): 126 nM | TGI (UACC-62 melanoma): 254 nM | GI50 (HL-60(TB) leukemia): 147 nM | TGI (HL-60(TB) leukemia): 280 nM | GI50 (NCI/ADR-RES ovarian): 20400 nM | TGI (NCI/ADR-RES ovarian): 59400 nM | GI50 (SF-268 CNS): 136 nM | TGI (SF-268 CNS): 269 nM | GI50 (SK-OV-3 ovarian): 171 nM | TGI (SK-OV-3 ovarian): 312 nM | GI50 (MDA-MB-435 melanoma): 141 nM | TGI (MDA-MB-435 melanoma): 281 nM | GI50 (RXF 393 renal): 135 nM | TGI (RXF 393 renal): 268 nM | GI50 (SK-MEL-2 melanoma): 22.6 nM | TGI (SK-MEL-2 melanoma): 93.8 nM | GI50 (KM12 colon): 165 nM | TGI (KM12 colon): 308 nM | GI50 (NCI-H322M lung): 284 nM | TGI (NCI-H322M lung): 860 nM | GI50 (SN12C renal): 179 nM | TGI (SN12C renal): 320 nM | GI50 (U251 glioblastoma): 173 nM | TGI (U251 glioblastoma): 316 nM | GI50 (HCT-116 colon): 167 nM | TGI (HCT-116 colon): 309 nM | GI50 (OVCAR-3 ovarian): 131 nM | TGI (OVCAR-3 ovarian): 262 nM | GI50 ([…]-0 renal): 297 nM | TGI (786-0 renal): 1030 nM
